In PMC3636379, “Intracellular accumulation of aggregated pyroglutamate amyloid beta: convergence of aging and Aβ pathology at the lysosome” (Age, 2012):

What was measured:
recombinant CTD = target: T1, recombinant CTD (Homo sapiens, UniProt P07339); test: Degradation assay of internally quenched fluorescent Aβ peptides with cathepsin D; format: in vitro ADME; details: 10 pmol, 5 mU recombinant CTD, 100 mM sodium acetate pH 5.0, 37 °C, fluorescence ex 485 / em 520 nm, mean ± SD, two independent experiments (n = 10)
T1 construct: purchased Sigma
T1 sequence (P07339 65-412): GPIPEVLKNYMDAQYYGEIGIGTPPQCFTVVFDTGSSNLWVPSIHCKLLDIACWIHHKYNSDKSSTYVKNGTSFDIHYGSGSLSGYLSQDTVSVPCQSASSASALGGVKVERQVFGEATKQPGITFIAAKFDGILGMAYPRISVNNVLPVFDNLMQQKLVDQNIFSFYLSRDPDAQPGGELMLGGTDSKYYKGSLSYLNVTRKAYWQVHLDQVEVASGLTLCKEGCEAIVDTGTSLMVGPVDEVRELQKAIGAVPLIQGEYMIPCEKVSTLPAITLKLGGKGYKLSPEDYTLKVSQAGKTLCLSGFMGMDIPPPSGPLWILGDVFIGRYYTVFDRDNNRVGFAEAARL
Experimental: Therefore, we investigated whether the pE-modified Aβ is more resistant to lysosomal degradation. To this end, a degradation assay with the major lysosomal hydrolase CTD was performed. For this purpose, we used internally quenched fluorescent Aβ peptides. Degradation of the peptides removes the quencher and restores the fluorescent signal (Reits et al. [2003]), thus allowing analysis of degradation over time by monitoring the increase in fluorescence. […] To investigate the effect of aggregation on degradation, we used pre-aggregated Aβ1-40 and Aβ3(pE)-40 in the CTD assay. […] Upon aggregation, the overall degradation is hampered, but the observed difference between the peptides is retained.
Aβ peptides containing fluorophore and quencher were synthesized by solid phase synthesis using an Fmoc strategy at the NKI peptide facility. […] Peptides were purified by RP-HPLC and evidenced the expected molecular mass as determined by mass spectrometry.
Immediately prior to use, HFIP-treated peptide films of fluorescently labeled internally quenched Aβ were resuspended in DMSO and further diluted in PBS. […] Degradation of quenched peptides was followed by monitoring the increase in fluorescence (excitation, 485–12 nm; emission, 520 nm, Fluostar Omega) at 37 °C. Background fluorescence of peptide incubated in buffer without CTD controls was subtracted. […]

[1] = test system: differentiated SK-N-SH cells; test: Lysosomal membrane permeabilization: CTD in subcellular fractions, Western blot; format: cell-based; details: 1 μM oligomers, 16 h, three experiments
Experimental: (§1) To investigate whether Aβ3(pE)-42 oligomers affect the integrity of the lysosomes, lysosomal membrane permeabilization (LMP) was analyzed in differentiated SK-N-SH cells. A distinctive sign of LMP is the translocation of soluble lysosomal components, from the lysosomal lumen to the cytosol (Boya et al. [2003]). Differentiated SK-N-SH cells were treated with Aβ oligomers and the leakage of cathepsin D (CTD), a soluble lysosomal enzyme, from the lysosomal lumen to the cytosol was analyzed after subcellular fractionation on Western blot and by immunofluorescent staining. Treatment with Aβ3(pE)-42 oligomers led to a decrease of CTD in the membrane fraction (which also contained the lysosomes) whereas the cytosolic CTD was increased. […] The result was confirmed by immunofluorescent staining of CTD. Untreated cells reveal a particulate staining pattern, indicative of its localization within lysosomes (Fig. 1b).
SK-N-SH and HeLa cells were cultured in Dulbecco’s modified Eagle’s medium with GlutaMAX (Gibco BRL, Carlsbad, CA, USA) supplemented with 10 % fetal calf serum (FCS, Gibco BRL), 100 μg/ml streptomycin, and 100 U/ml penicillin. Cell lines are routinely checked for mycoplasma contamination using a specific 16S rRNA PCR-based assay; all cells used in this study were mycoplasma free. […]

[2] = test system: differentiated SK-N-SH cells; test: Lysosomal membrane permeabilization: immunofluorescent staining of CTD; format: cell-based; details: 1 μM Aβ oligomers or hydroxychloroquine, 16 h; confocal microscopy
Experimental: as §1, with “1b). […] SK-N-SH and HeLa cells were cultured in Dulbecco’s modified Eagle’s medium with GlutaMAX (Gibco BRL, Carlsbad, CA, USA) supplemented with 10 % fetal calf serum (FCS, Gibco BRL), 100 μg/ml streptomycin, and 100 U/ml penicillin. Cell lines are routinely checked for mycoplasma contamination using a specific 16S rRNA PCR-based assay; all cells used in this study were mycoplasma free. […]” for “1b).”

Substance | time to reach the half-max fluorescence of degradation (t 1/2) (recombinant CTD; not pre-aggregated, internally quenched fluorescent peptide (Oregon green 488 at aa 22, dabcyl at aa 12)) [min] | time to reach the half-max fluorescence of degradation (t 1/2) (recombinant CTD; pre-aggregated peptide, internally quenched fluorescent peptide) [min] | CTD in the membrane fraction (containing the lysosomes) [1] | cytosolic CTD [1] | CTD staining pattern (release from lysosomes to cytoplasm) [2]
Aβ1-40: internally quenched fluorescent Aβ peptide, Oregon green 488 at amino acid 22 and dabcyl at amino acid 12; pre-aggregated or not | 48.9 ± 4.3 | 63.6 ± 10.0 | – | – | –
Aβ1-42: synthetic amyloid beta 1-42 purchased from Anaspec, used as oligomers | – | – | did not change | did not change | same pattern but to a lesser extent
